What was measured:
[1] = test system: velvetleaf; assay: Test A pre-/postemergence herbicide test; format: in vivo, Abutilon theophrasti; details: for Velvetleaf plant response rating: Preemergence, visual rating, 0 to 100 scale (0 no effect, 100 complete control)
Method in brief: (§1)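 Visual injury rating on a 0–100 scale (0 no effect, 100 complete control) versus untreated controls, about ten days after treatment in greenhouse. Pre: directed soil spray onto seeded sandy loam. Post: spray to runoff on plants 2–10 cm tall at one- to two-leaf stage.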

[2] = test system: bermudagrass; assay: Test C pre-/postemergence herbicide test; format: in vivo, Cynodon dactylon; details: for Plant response rating, Bermudagrass: visual, 12 to 14 days
Method in brief: (§2)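 Pre- and postemergence application, solvent/surfactant formulation; post at 1- to 4-leaf stage (2–18 cm). Greenhouse 12–14 d. Visual rating vs controls, 0 = no effect, 100 = complete control.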

[3] = test system: redroot pigweed; assay: Test A pre-/postemergence herbicide test; format: in vivo, Amaranthus retroflexus; details: for Plant response rating, Pigweed: Postemergence; for Pigweed plant response rating: Preemergence
Method in brief: as §1

[4] = test system: yellow nutsedge; assay: Test C pre-/postemergence herbicide test; format: in vivo, Cyperus esculentus
Method in brief: as §2

[5] = test system: barnyardgrass; assay: Test C flooded paddy test; format: in vivo, Echinochloa crus-galli
Method in brief: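 Injury scored visually against controls on a 0 (no effect) to 100 (complete control) scale, 12 to 14 days after treatment in greenhouse. Flooded paddy plants treated at 2-leaf stage; postemergence plants at 1- to 4-leaf stage, 2 to 18 cm tall.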

[6] = test system: giant foxtail; assay: Test C pre-/postemergence herbicide test; format: in vivo, Setaria faberi; details: for Plant response rating, Foxtail, Giant: visual, 12 to 14 days
Method in brief: as §2

[7] = test system: common ragweed; assay: Test C pre-/postemergence herbicide test; format: in vivo, Ambrosia elatior; design: key to Plant response rating, Ragweed: 0 = no effect, 100 = complete control
Method in brief: as §2

[8] = test system: morningglory; assay: Test C pre-/postemergence herbicide test; format: in vivo, Ipomoea coccinea; design: key to Plant response rating, Morningglory: 0 = no effect, 100 = complete control
Method in brief: as §2

[9] = test system: lambsquarters; assay: Test C pre-/postemergence herbicide test; format: in vivo, Chenopodium album
Method in brief: as §2

[10] = test system: morningglory; assay: Test A pre-/postemergence herbicide test; format: in vivo, Ipomoea spp.; details: for Plant response rating, Morningglory: Postemergence; for Morningglory plant response rating: Preemergence
Method in brief: as §1

[11] = test system: eastern black nightshade; assay: Test C pre-/postemergence herbicide test; format: in vivo, Solanum ptycanthum
Method in brief: as §2

[12] = test system: smallflower umbrella sedge; assay: Test C flooded paddy test; format: in vivo, Cyperus difformis
[13] = 125 g ai/ha, scale 0 (no effect) to 100 (complete control), preemergence
[14] = 250 g ai/ha, scale 0 to 100 (0 no effect, 100 complete control), preemergence
[15] = Preemergence, 500 g ai/ha, scale 0 to 100, 0 no effect, 100 complete control
[16] = 500 g ai/ha, 0 to 100 scale, 0 no effect, 100 complete control
[17] = 2000 g ai/ha, 0 to 100 scale, 0 no effect, 100 complete control
[18] = 500 g ai/ha, visual rating, 0 to 100 scale (0 no effect, 100 complete control)
[19] = 125 g ai/ha, scale 0 (no effect) to 100 (complete control), visual, 12 to 14 days, preemergence
[20] = 62 g ai/ha, scale 0 to 100 (0 no effect, 100 complete control)
[21] = 125 g ai/ha, scale of 0 to 100, 0 is no effect, 100 is complete control
[22] = 250 g ai/ha, scale of 0 to 100, 0 is no effect, 100 is complete control
[23] = 500 g ai/ha, visual rating after 12 to 14 days, scale 0 to 100 (0 no effect, 100 complete control)

Compound: CCn1nc(C(C)(C)C)cc1C(=O)Nc1cccc2c1CCN(C1CC1)C2=O [Compound 64]
- Plant response rating, Velvetleaf ([1]; Postemergence, 2000 g ai/ha, 0 to 100 scale, 0 no effect, 100 complete control): 30
- Velvetleaf plant response rating ([1]; 500 g ai/ha): 10
- Velvetleaf plant response rating ([1]; 2000 g ai/ha): 35
- Plant response rating (0 = no effect, 100 = complete control), Bermudagrass ([2]; 62 g ai/ha, preemergence): 0
- Plant response rating, Bermudagrass [2, 13]: 30
- Plant response rating, Bermudagrass [2, 14]: 85
- Bermudagrass plant response rating [2, 15]: 90
- Plant response rating, Pigweed [3, 16]: 65
- Plant response rating, Pigweed [3, 17]: 95
- Pigweed plant response rating [3, 18]: 100
- Pigweed plant response rating [3, 17]: 100
- Plant response rating (0 = no effect, 100 = complete control), Nutsedge, Yellow ([4]; 62 g ai/ha, preemergence): 0
- Plant response rating, Nutsedge, Yellow [4, 19]: 0
- Nutsedge, Yellow plant response rating [4, 15]: 0
- Barnyardgrass plant response rating [5, 20]: 0
- Barnyardgrass plant response rating [5, 21]: 0
- Barnyardgrass plant response rating [5, 22]: 0
- Plant response rating, Barnyardgrass [5, 23]: 35
- Plant response rating (0 = no effect, 100 = complete control), Foxtail, Giant ([6]; 62 g ai/ha, preemergence): 0
- Plant response rating, Foxtail, Giant [6, 13]: 0
- Plant response rating, Foxtail, Giant [6, 14]: 10
- Foxtail, Giant plant response rating [6, 15]: 80
- Plant response rating (0 = no effect, 100 = complete control), Ragweed ([7]; 62 g ai/ha, preemergence): 0
- Plant response rating, Ragweed [7, 19]: 0
- Ragweed plant response rating [7, 15]: 20
- Plant response rating (0 = no effect, 100 = complete control), Morningglory ([8]; 62 g ai/ha, preemergence): 0
- Plant response rating, Morningglory [8, 19]: 0
- Morningglory plant response rating [8, 15]: 0
- Plant response rating (0 = no effect, 100 = complete control), Lambsquarters ([9]; 62 g ai/ha, preemergence): 0
- Plant response rating, Lambsquarters [9, 19]: 0
- Lambsquarters plant response rating [9, 15]: 90
- Plant response rating, Morningglory [10, 16]: 10
- Plant response rating, Morningglory [10, 17]: 10
- Morningglory plant response rating [10, 18]: 0
- Morningglory plant response rating [10, 17]: 5
- Plant response rating (0 = no effect, 100 = complete control), Nightshade ([11]; 62 g ai/ha, preemergence): 0
- Plant response rating, Nightshade [11, 19]: 50
- Nightshade plant response rating [11, 15]: 95
- Sedge, Umbrella plant response rating [12, 20]: 0
- Sedge, Umbrella plant response rating [12, 21]: 25
- Sedge, Umbrella plant response rating [12, 22]: 35
- Plant response rating, Sedge, Umbrella [12, 23]: 75

Source: US20060069132A1, “Azolecarboxamide herbicides” (priority 2004, published 2006)
